Structures are written as SMILES.

By Cmax is commonly meant the maximum level reached in the sampled fluid or tissue. In general, Ki refers to the equilibrium dissociation constant of an inhibitor or competing ligand from its target.

A short description of data set [1]: Rat pharmacokinetic experiment. In kind it is in vivo. As to conditions: rat, po, 3 mg/kg; for Kp: male, SD, brain / plasma, read-out: B/P (proportion of compounds entering the brain); for Cmax: plasma, male SD rats. The method, then: The maximum plasma concentration (Cmax) in the rat pharmacokinetic experiment was used to evaluate the absorption of the compounds in rat in vivo. The experimental compound was dissolved and then orally administered by gavage (p.o.) to male SD rats. The rats were fasted overnight before drug administration, and blood was collected via venipuncture at 0.25, 0.5, 1, 2, 4, and 7 hours post dose. Approximately 100 μL blood was collected for each sample; at the same time, the whole brain was taken and homogenized with 3 times the amount of PBS for analysis. The […] method was used to determine drug concentrations in plasma and brain tissue, and the proportion of compounds entering the brain (B/P) was calculated based on the AUC of the compound. Pharmacokinetic parameters were calculated using Phoenix WinNonlin 7.0. The administration vehicle was 5% CMC-Na aqueous solution.

Data set [2] has as its target α5-GABAA receptor (α5, β3, γ2 subunits) (Homo sapiens (Human), UniProt P18507+P31644). The experiment in a line: Whole cell patch clamp, inverse agonist efficacy in HEK293 cells expressing α5-GABAA receptor. Format: cell-based. As to conditions: HEK293, drug 100 nM, GABA 0.05 μM, −60 mV; read-out: Compound inverse agonist efficacy %. The gist of the method:
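Compounds screened at 100 nM against current induced by 0.05 μM GABA in monoclonal HEK293 cells stably expressing α5β3γ2 GABAA receptors. Recording by whole-cell voltage clamp (−60 mV, pH 7.4 bath, CsCl pipette); efficacy calculated from leak-corrected currents before and after drug.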

For data set [3], the target named is human α5β3γ2 receptors (α5-GABAA receptor) (Homo sapiens (Human), UniProt P18507+P31644). The experiment in a line: 3H-flunitrazepam competition binding, human α5β3γ2 GABAA receptor. As to conditions: HEK293 cell membranes, 1 nM 3H-flunitrazepam; read-out: α5-GABAAR Ki. In outline: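 Radioligand displacement of 1 nM 3H-flunitrazepam from membranes of HEK293 lines stably expressing the human subtypes, 1 h at room temperature, compound in 8-point 4-fold series. Bound label on GF/C filters counted by scintillation; Ki derived from fitted IC50, with flumazenil as low control.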

In the next data set the target is human α2β3γ2 receptors (Homo sapiens (Human), UniProt P18507+P47869). Put plainly: 3H-flunitrazepam competition binding, human α2β3γ2 GABAA receptor. As to conditions: HEK293 cell membranes, 1 nM 3H-flunitrazepam; read-out: Ki α2. The method, then: (§1) The affinity of the compound to each subtype of GABAA receptor was determined by competing for the binding of ^3H-flunitrazepam to HEK293 cells stably expressing human α1β3γ2, α2β3γ2, α3β3γ2, and α5β3γ2 receptors.
(§2) The cells were suspended in 50 mM Tris-HCl buffer (pH=7.4), homogenized 10 times on ice with a homogenizer for 20 seconds, and centrifuged at 1000 g for 10 minutes at 4° C. The supernatant was collected, and the above steps were repeated. The supernatant was centrifuged at 4° C. (33800 g; Thermo, rotor: A27-8×50) for 60 minutes, and the precipitate was resuspended in Tris buffer (50 mM Tris-HCl, 10 mM MgCl2, 0.5 mM EDTA, 10% glycerol). Protein was measured (BCA method, Pierce), and 1 mL aliquots were prepared and stored at −80° C.
(§3) The radioligand competition binding assay was performed in a 200 μL system (96-well plate) containing 100 μL of cell membrane. The concentration of ^3H-flunitrazepam was 1 nM and the concentration of the test compound was in the range of […]. Flumazenil was used as a control. 1 μL of 2 mM flumazenil (final concentration […]) was added to the low signal control well (Low control, LC), and 1 μL of DMSO was added to the high signal control well (High control, HC). The final concentration of target membrane protein was […]. All test compound sample storage solutions were 10 mM. The working concentration of the samples was to dilute all the samples to 0.2 mM with DMSO, followed by 4-fold serial gradient dilutions for a total of 8 concentration gradients. The 96-well plate was sealed with a sealing film, and then incubated on a shaker at room temperature for 1 hour. At the same time, the GF/C filter plate was soaked in soaking buffer (0.3% PEI, stored at 4° C.) for at least 0.5 hours. After the binding incubation was completed, the cells were collected onto a GF/C filter plate using a cell harvester. The plate was washed four times with washing buffer (50 mM Tris-HCl, pH 7.4, stored at 4° C.). After drying in a 50° C. oven for 1 hour, the bottom of the dried GF/C filter plate was sealed. The residual radioactivity on the filter membrane was detected using liquid scintillation counting. 50 μL of scintillation fluid was added to each well, and the plate was sealed. The readings were taken using a Microbeta2. The inhibitory activity of the test sample on the binding of ^3H-flunitrazepam to GABAA receptor membrane proteins was calculated, and the IC50 of each test sample was calculated by dose-effect curve fitting (GraphPad Prism 5 software), and the Ki of the sample was calculated from the IC50, thus evaluating the binding ability of the sample to the various subtypes of GABAA receptors.

A further data set has as its target human α1β3γ2 receptors (Homo sapiens (Human), UniProt P14867+P18507). Put plainly: 3H-flunitrazepam competition binding, human α1β3γ2 GABAA receptor. As to conditions: HEK293 cell membranes, 1 nM 3H-flunitrazepam; read-out: Ki α1. The method, then:
as §1, §2, §3

A further data set deals with human α3β3γ2 receptors (Homo sapiens (Human), UniProt P18507+P34903). The experiment in a line: 3H-flunitrazepam competition binding, human α3β3γ2 GABAA receptor. As to conditions: HEK293 cell membranes, 1 nM 3H-flunitrazepam; read-out: Ki α3. The method, then:
as §1, §2, §3

In the case of `Cc1nnn(-c2ccc(C(F)F)cc2)c1COc1ccc(N2CC(=O)N3CCC[C@H]3C2)nn1` [Example 14, (S)-2-(6-((1-(4-(difluoromethyl)phenyl)-4-methyl-1H-1,2,3-triazol-5-yl)methoxy)pyridazin-3-yl)hexahydropyrrolo[1,2-a]pyrazin-4(1H)-one], in data set [1], the Kp was determined as 0.0135 and the Cmax is 2700 ng/mL. In data set [2], the inhibition at 0.1 µM stood at 45.7%. Also, the Ki in data set [3] was 1.24 nM.

As to `Cc1nnn(-c2ccc(C(F)F)cc2)c1COc1ccc(N2CCN3CCNC(=O)[C@@H]3C2)cn1` [Example 56, (S)-8-(6-((1-(4-(Difluoromethyl)phenyl)-4-methyl-1H-1,2,3-triazol-5-yl)methoxy)pyridin-3-yl)octahydro-1H-pyrazino[1,2-a]pyrazin-1-one], on human α2β3γ2 receptors, the Ki was 330 nM. Besides, in data set [1], the Kp was 0.0261 and the concentration peaked (Cmax) at 2050 ng/mL. Moreover, the inhibition at 0.1 µM in data set [2] came out at 53.4%. Further, the Ki in data set [3] was determined as 7.99 nM.

Consider `N#Cc1nnn(-c2ccc(C(F)F)cc2)c1COc1ccc(N2CCNC(=O)C2)nn1` [Example 78, 1-(4-(Difluoromethyl)phenyl)-5-(((6-(3-oxopiperazin-1-yl)pyridazin-3-yl)oxy)methyl)-1H-1,2,3-triazole-4-carbonitrile], for which the Ki on human α1β3γ2 receptors worked out at 246 nM; at human α3β3γ2 receptors it was 28.4 nM; at human α2β3γ2 receptors, 45.9 nM; in data set [3] it was 2.03 nM. For the same compound, in data set [2], the inhibition at 0.1 µM was determined as 43.7%.

As to `O=C1CN(c2ccc(OCc3c(CO)nnn3-c3ccc(C(F)F)cc3)nn2)CCN1` [Example 80, 4-(6-((1-(4-(Difluoromethyl)phenyl)-4-(hydroxymethyl)-1H-1,2,3-triazol-5-yl)methoxy)pyridazin-3-yl)piperazin-2-one], the Ki at human α1β3γ2 receptors amounted to 161 nM; at human α3β3γ2 receptors, 16 nM; on human α2β3γ2 receptors, 22.7 nM; in data set [3], 0.82 nM. For the same compound, in data set [2], the inhibition at 0.1 µM was 54.8%.

Regarding `Cc1nnn(-c2ccc(C(F)F)cc2)c1COc1ccc(N2CC(C(=O)Nc3cnn(C)c3)C2)nn1` [Example 103, 1-(6-((1-(4-(Difluoromethyl)phenyl)-4-methyl-1H-1,2,3-triazol-5-yl)methoxy)pyridazin-3-yl)-N-(1-methyl-1H-pyrazol-4-yl)azetidine-3-carboxamide], the Ki was determined as 52.8 nM at human α1β3γ2 receptors, 10.3 nM at human α3β3γ2 receptors, 40.1 nM at human α2β3γ2 receptors and 1.27 nM in data set [3]. Besides, the inhibition at 0.1 µM in data set [2] was found to be 49.6%.

Take `Cc1nnn(-c2ccc(C(F)F)cc2)c1COc1ccc(N2CC(C(=O)N3CCOCC3)C2)nn1` [Example 104, (1-(6-((1-(4-(Difluoromethyl)phenyl)-4-methyl-1H-1,2,3-triazol-5-yl)methoxy)pyridazin-3-yl)azetidin-3-yl)(morpholino)methanone]: in data set [1], the Kp was 0.0095 and the highest concentration (Cmax) is 3890 ng/mL. For the same compound, the inhibition at 0.1 µM in data set [2] came out at 49.9%. Moreover, in data set [3], the Ki was found to be 1.77 nM.

Take `Cc1nnn(-c2ccc(C(F)F)cc2)c1COc1ccc(N2CCN(C3CC3)C(=O)C2)nn1` [Example 108, 1-Cyclopropyl-4-(6-((1-(4-(difluoromethyl)phenyl)-4-methyl-1H-1,2,3-triazol-5-yl)methoxy)pyridazin-3-yl)piperazin-2-one]: in data set [1], the Kp stood at 0.0208 and the highest level (Cmax) was 1780 ng/mL. For the same compound, in data set [2], the inhibition at 0.1 µM stood at 52.2%. For the same compound, in data set [3], the Ki stood at 1.66 nM.

Take `Cc1nnn(-c2ccc(C(F)F)cc2)c1COc1ccc(N2C[C@H]3C[C@@H]2C(=O)N3)nn1` [Example 116, (1R,4R)-5-(6-((1-(4-(Difluoromethyl)phenyl)-4-methyl-1H-1,2,3-triazol-5-yl)methoxy)pyridazin-3-yl)-2,5-diazabicyclo[2.2.1]heptan-3-one]: the Ki on human α1β3γ2 receptors turned out to be 65.2 nM; at human α3β3γ2 receptors, 22.7 nM; at human α2β3γ2 receptors it was 50.1 nM; in data set [3] it was 1.66 nM. Moreover, the inhibition at 0.1 µM in data set [2] is 48.4%.

As for `Cc1nnn(-c2ccc(C(F)F)cc2)c1COc1ccc(N2CCN3c4ccccc4NC(=O)[C@@H]3C2)nn1` [Example 122, (S)-3-(6-((1-(4-(Difluoromethyl)phenyl)-4-methyl-1H-1,2,3-triazol-5-yl)methoxy)pyridazin-3-yl)-2,trans-3,4,4a-tetrahydro-1H-pyrazino[1,2-a]quinoxalin-5(6H)-one], the inhibitory constant (Ki) on human α1β3γ2 receptors is 266 nM; on human α3β3γ2 receptors, 67.3 nM; at human α2β3γ2 receptors, 149 nM; in data set [3], 2.46 nM. Besides, the inhibition at 0.1 µM in data set [2] came out at 48.7%.

On to `Cn1nnc(-c2ccc(C(F)F)cc2)c1COc1ccc(N2CCNC(=O)C2)nn1` [Example 127, 4-(6-((4-(4-(Difluoromethyl)phenyl)-1-methyl-1H-1,2,3-triazol-5-yl)methoxy)pyridazin-3-yl)piperazin-2-one], for which the inhibitory constant (Ki) at human α1β3γ2 receptors was 400 nM; on human α3β3γ2 receptors it was 36.7 nM; on human α2β3γ2 receptors, 23.7 nM; in data set [3], 2.08 nM. Further, the inhibition at 0.1 µM in data set [2] was 55%.

For `Cc1ccc(-n2nnc(C)c2COc2ccc(N3CCN4CCNC(=O)[C@@H]4C3)nn2)cc1` [Example 129, (S)-8-(6-((4-Methyl-1-(p-tolyl)-1H-1,2,3-triazol-5-yl)methoxy)pyridazin-3-yl)octahydro-1H-pyrazino[1,2-a]pyrazin-1-one], the Ki at human α1β3γ2 receptors was 911 nM; at human α3β3γ2 receptors, 195 nM; on human α2β3γ2 receptors, 168 nM; in data set [3], 9.75 nM. For the same compound, the inhibition at 0.1 µM in data set [2] is 56.3%.

For `Cc1nnn(-c2ccc(C(F)F)cc2)c1COc1ccc(N2CCN3CCN(C4CC4)C(=O)[C@@H]3C2)nn1` [Example 148, (S)-2-Cyclopropyl-8-(6-((1-(4-(difluoromethyl)phenyl)-4-methyl-1H-1,2,3-triazol-5-yl)methoxy)pyridazin-3-yl)hexahydro-2H-pyrazino[1,2-a]pyrazin-1(6H)-one], the Ki at human α1β3γ2 receptors was 445 nM; at human α3β3γ2 receptors it was 56.2 nM; on human α2β3γ2 receptors it was 117 nM; in data set [3], 2.5 nM. Also, in data set [2], the inhibition at 0.1 µM stood at 42.6%.

In the case of `Cc1nnn(-c2ccc(C(F)F)cc2)c1COc1ccc(N2CC(=O)N3CCOC[C@H]3C2)nn1` [Example 173, (R)-8-(6-((1-(4-(Difluoromethyl)phenyl)-4-methyl-1H-1,2,3-triazol-5-yl)methoxy)pyridazin-3-yl)hexahydropyrazino[2,1-c][1,4]oxazin-6(1H)-one], the inhibition constant Ki on human α1β3γ2 receptors came to 80.6 nM; at human α3β3γ2 receptors, 14.1 nM; at human α2β3γ2 receptors, 16.8 nM; in data set [3], 0.55 nM. Moreover, the inhibition at 0.1 µM in data set [2] was found to be 50.8%.
